Assay results as given in patent US11655217B2, “Pyrazole MAGL inhibitors” (H. Lundbeck A/S, priority 2017, dated 2023).

Columns and labels:
MAGL = MAGL (Mus musculus (Mouse), UniProt O35678); test: Mouse brain proteomes from inhibitor treated mice (oral gavage, sacrificed 4 h after administration, ABPP analysis); conditions: 5 mg/kg oral gavage
Procedure: (§1) Preparation of Mouse Brain Proteomes from Inhibitor Treated Mice.
(§2) Inhibitors were administered to wild-type C57Bl/6J by oral gavage in a vehicle of polyethylene glycol.

FAAH = FAAH (Mus musculus (Mouse), UniProt O08914); test: Mouse brain proteomes from inhibitor treated mice (oral gavage, sacrificed 4 h after administration, ABPP analysis), FAAH; conditions: 5 mg/kg oral gavage
Sequence of FAAH (O08914 whole entry): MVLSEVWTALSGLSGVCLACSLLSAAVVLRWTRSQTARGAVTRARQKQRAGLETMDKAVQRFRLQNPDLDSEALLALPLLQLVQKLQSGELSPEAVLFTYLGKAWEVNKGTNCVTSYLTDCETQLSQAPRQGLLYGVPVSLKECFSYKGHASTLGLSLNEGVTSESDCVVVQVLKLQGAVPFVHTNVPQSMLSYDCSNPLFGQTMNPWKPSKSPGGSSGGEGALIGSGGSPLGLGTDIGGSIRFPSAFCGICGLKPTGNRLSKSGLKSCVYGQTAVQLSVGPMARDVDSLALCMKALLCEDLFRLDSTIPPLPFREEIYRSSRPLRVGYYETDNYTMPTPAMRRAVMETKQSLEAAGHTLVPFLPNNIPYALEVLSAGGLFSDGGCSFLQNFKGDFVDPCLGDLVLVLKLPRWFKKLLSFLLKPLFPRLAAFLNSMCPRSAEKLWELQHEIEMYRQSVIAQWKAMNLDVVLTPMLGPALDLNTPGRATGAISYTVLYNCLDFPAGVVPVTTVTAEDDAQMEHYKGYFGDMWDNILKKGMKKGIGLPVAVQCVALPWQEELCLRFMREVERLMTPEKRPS
Procedure: as §1, §2

Sequence of MAGL (O35678 whole entry): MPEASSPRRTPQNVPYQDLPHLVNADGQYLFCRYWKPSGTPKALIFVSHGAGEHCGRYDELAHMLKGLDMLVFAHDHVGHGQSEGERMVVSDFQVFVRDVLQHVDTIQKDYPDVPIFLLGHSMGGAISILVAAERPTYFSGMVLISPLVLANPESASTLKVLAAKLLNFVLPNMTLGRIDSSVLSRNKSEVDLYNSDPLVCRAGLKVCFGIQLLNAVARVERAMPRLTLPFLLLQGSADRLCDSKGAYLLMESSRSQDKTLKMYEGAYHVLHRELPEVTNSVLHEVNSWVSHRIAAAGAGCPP

Structure (SMILES)	MAGL % inh. 5 mg/kg (mouse) (MAGL)	FAAH % inh. 5 mg/kg (mouse) (FAAH)
C[C@H]1CCCN1c1cc(C(F)(F)F)ccc1CN1CCN(C(=O)n2ccc(C(=O)O)n2)CC1 [Example 104, (S)-1-(4-(2-(2-methylpyrrolidin-1-yl)-4-(trifluoromethyl)benzyl)piperazine-1-carbonyl)-1H-pyrazole-3-carboxylic acid]	D (% inhibition is greater than or equal to 0% and less than 25%)	D (% inhibition is greater than or equal to 0% and less than 25%)
O=C(O)c1nn(C(=O)N2CCN(Cc3cccc(Oc4ccc(Cl)cc4)c3)CC2)cc1Cl [Example 132, 4-chloro-1-(4-(3-(4-chlorophenoxy)benzyl)piperazine-1-carbonyl)-1H-pyrazole-3-carboxylic acid]	D (% inhibition is greater than or equal to 0% and less than 25%)	D (% inhibition is greater than or equal to 0% and less than 25%)
Cc1cn(C(=O)N2CCC3(CC2)CN(Cc2ccc(C(F)(F)F)cc2N2CCCC2)C3)nc1C(=O)O [Example 135, 4-methyl-1-(2-(2-(pyrrolidin-1-yl)-4-(trifluoromethyl)benzyl)-2,7-diazaspiro[3.5]no-nane-7-carbonyl)-1H-pyrazole-3-carboxylic acid]	D (% inhibition is greater than or equal to 0% and less than 25%)	D (% inhibition is greater than or equal to 0% and less than 25%)
O=C(O)c1ccn(C(=O)N2CCN(Cc3cccc(Oc4ccc(Cl)cc4)c3)CC2)n1 [Example 98, 1-(4-(3-(4-chlorophenoxy)benzyl)piperazine-1-carbonyl)-1H-pyrazole-3-carboxylic acid]	D (% inhibition is greater than or equal to 0% and less than 25%)	D (% inhibition is greater than or equal to 0% and less than 25%)
O=C(O)c1ccn(C(=O)N2CCC3(CCCN3Cc3cc(Cl)cc(C(F)(F)F)c3)CC2)n1 [Example 86, 1-(1-(3-chloro-5-(trifluoromethyl)benzyl)-1,8-diazaspiro[4.5]decane-8-carbonyl)-1H-pyrazole-3-carboxylic acid]	D (% inhibition is greater than or equal to 0% and less than 25%)	D (% inhibition is greater than or equal to 0% and less than 25%)
O=C(O)c1ccn(C(=O)N2C[C@H]3C[C@H](OCc4cccc(Oc5ccc(Cl)cc5)c4)C[C@H]3C2)n1 [Example 158, 1-(trans-5-((3-(4-chlorophenoxy)benzyl)oxy)octa-hydrocyclopenta[c]pyrrole-2-carbonyl)-1H-pyrazole-3-carboxylic acid]	D (% inhibition is greater than or equal to 0% and less than 25%)	D (% inhibition is greater than or equal to 0% and less than 25%)
O=C(O)c1ccn(C(=O)N2CCN(Cc3ccc(C(F)(F)F)c(N4C5CCC4COC5)c3)CC2)n1 [Example 40, 1-(4-(3-(3-oxa-8-azabicyclo[3.2.1]octan-8-yl)-4-(trifluoromethyl)benzyl)piperazine-1-carbonyl)-1H-pyrazole-3-carboxylic acid]	D (% inhibition is greater than or equal to 0% and less than 25%)	D (% inhibition is greater than or equal to 0% and less than 25%)
O=C(O)c1ccn(C(=O)N2CCN(Cc3ccc(C(F)(F)F)cc3N3CC[C@H](F)C3)CC2)n1 [Example 92, (S)-1-(4-(2-(3-fluoropyrrolidin-1-yl)-4-(trifluoromethyl)benzyl)-piperazine-1-carbonyl)-1H-pyrazole-3-carboxylic acid]	D (% inhibition is greater than or equal to 0% and less than 25%)	D (% inhibition is greater than or equal to 0% and less than 25%)
O=C(O)c1ccn(C(=O)N2CCN(Cc3ccc(C(F)(F)F)cc3N3CCCCC3)CC2)n1 [Example 100, 1-(4-(2-(piperidin-1-yl)-4-(trifluoromethyl)benzyl)piperazine-1-carbonyl)-1H-pyrazole-3-carboxylic acid]	D (% inhibition is greater than or equal to 0% and less than 25%)	D (% inhibition is greater than or equal to 0% and less than 25%)
